Test results published in patent US9428460B2, “N-[4-(quinolin-4-yloxy)cyclohexyl(methyl)](hetero)arylcarboxamides as androgen receptor antagonists, production and use thereof as medicinal products” (BAYER PHARMA AKTIENGESELLSCHAFT, priority 2012, dated 2016).

Tests used:
Format in all cases: cell-based
[1] = system: LAPC-4 cells; test: Proliferation assay with LAPC-4 cells; settings: Homo sapiens, LAPC4, 168 h; in the presence of 1×10^−9 M R1881, seven days, AlamarBlue; read-out: IC50 LAPC-4 cell proliferation
Experimental: LAPC-4 cells (Klein et al., Nat Med. 3(4): 402-8, 1997) were plated out at a density of 4000 cells per well of a 96-well cell culture plate in RMPI 1640 medium (F1275, Biochrom AG) that contained activated charcoal-treated calf serum (FCS Serum Gold, PAA Laboratories) at a concentration of 10% (v/v). On the next day the cells were treated with the test substances in concentrations from 1×10^−8 to 1×10^−10 M in the presence of 1×10^−9 M R1881. Cell proliferation was determined seven days later after incubation for 2 hours with AlamarBlue (DAL1100, Invitrogen) (Nakayama et al., J Immunol Methods, 204(2): 205-8, 1997). The fluorescence values obtained were normalized, wherein 100% corresponded to the effect of the unstimulated control (without R1881), and 0% corresponded to the effect of the stimulated control (R1881 plus DMSO instead of test substance). The IC50 value was determined by regression analysis based on a four-parameter equation (minimum, maximum, IC50, Hill coefficient; Y=Max+(Min−Max)/(1+(X/IC50)^Hill)).

[2] = molecular target: androgen receptor mutant E709Y (Homo sapiens (Human), UniProt P10275, E710Y); test: Transactivation assay for the androgen receptor mutant E709Y (transfected PC-3 cells); settings: in the presence of 1×10^−10 M R1881, 24 hours
Experimental: PC-3 cells (Kaighn et al., Invest. Urol. 17: 16-23, 1979) were plated out at a density of 10000 cells per well of a 96-well cell culture plate in RMPI 1640 medium (F1235, Biochrom AG Berlin, Germany) that contained activated charcoal-treated calf serum (FCS Serum Gold, PAA Laboratories) at a concentration of 5% (v/v). On the next day the cells were transiently transfected with the pSG5-vector (#216201 Stratagene), which contained the sequence of the androgen receptor mutant E709Y (Georget et al., Mol. Endocrinol. 20(4): 724-734, 2006), and with the MMTV-luciferase plasmid (see above, transactivation assay for the androgen receptor mutant W741C). The cells were treated with the test substances in concentrations from 1×10^−8 to 1×10^−10 M in the presence of 1×10^−10 M R1881 and were incubated overnight at 37° C. and 5% CO2. After 24 hours, 100 μl of Steady Glo Lysis and Detection reagent (E2550, Promega) was added per well and the luminescence was read in a Victor3 Luminometer (PerkinElmer) for 1 second per well. The luminescence values obtained were normalized, wherein 100% corresponded to the effect of the unstimulated control (without R1881), and 0% corresponded to the effect of the stimulated control (R1881 plus DMSO instead of test substance). The IC50 value was determined by regression analysis based on a four-parameter equation (minimum, maximum, IC50, Hill coefficient; Y=Max+(Min−Max)/(1+(X/IC50)^Hill)).

[3] = system: LNCaP cells; test: Proliferation assay with LNCaP cells; settings: Homo sapiens, 168 h, in the presence of 1×10^−10 M R1881, seven days, AlamarBlue, read-out: IC50 LNCaP cell proliferation
Experimental: LNCaP cells (Horoszewicz et al., in “Models for Prostate Cancer” (ed. G. P. Murphy), Alan R. Liss, New York 1981, p. 115-132; Horoszewicz et al., Cancer Res. 43: 1809-1818, 1983) were plated out at a density of 2000 cells per well of a 96-well cell culture plate in RMPI 1640 medium (F1275, Biochrom AG), which contained activated charcoal-treated calf serum (FCS Serum Gold, PAA Laboratories) at a concentration of 5% (v/v). Three days later the cells were treated with the test substances in concentrations from 1×10^−8 to 1×10^−10 M in the presence of 1×10^−10 M R1881. Cell proliferation was determined seven days later after incubation for 2 hours with AlamarBlue (DAL1100, Invitrogen) (Nakayama et al., J Immunol Methods, 204(2): 205-8, 1997). The fluorescence values obtained were normalized, wherein 100% corresponded to the effect of the unstimulated control (without R1881), and 0% corresponded to the effect of the stimulated control (R1881 plus DMSO instead of test substance). The IC50 value was determined by regression analysis based on a four-parameter equation (minimum, maximum, IC50, Hill coefficient; Y=Max+(Min−Max)/(1+(X/IC50)^Hill)).

androgen receptor mutant E709Y, sequence (P10275 whole entry E710Y): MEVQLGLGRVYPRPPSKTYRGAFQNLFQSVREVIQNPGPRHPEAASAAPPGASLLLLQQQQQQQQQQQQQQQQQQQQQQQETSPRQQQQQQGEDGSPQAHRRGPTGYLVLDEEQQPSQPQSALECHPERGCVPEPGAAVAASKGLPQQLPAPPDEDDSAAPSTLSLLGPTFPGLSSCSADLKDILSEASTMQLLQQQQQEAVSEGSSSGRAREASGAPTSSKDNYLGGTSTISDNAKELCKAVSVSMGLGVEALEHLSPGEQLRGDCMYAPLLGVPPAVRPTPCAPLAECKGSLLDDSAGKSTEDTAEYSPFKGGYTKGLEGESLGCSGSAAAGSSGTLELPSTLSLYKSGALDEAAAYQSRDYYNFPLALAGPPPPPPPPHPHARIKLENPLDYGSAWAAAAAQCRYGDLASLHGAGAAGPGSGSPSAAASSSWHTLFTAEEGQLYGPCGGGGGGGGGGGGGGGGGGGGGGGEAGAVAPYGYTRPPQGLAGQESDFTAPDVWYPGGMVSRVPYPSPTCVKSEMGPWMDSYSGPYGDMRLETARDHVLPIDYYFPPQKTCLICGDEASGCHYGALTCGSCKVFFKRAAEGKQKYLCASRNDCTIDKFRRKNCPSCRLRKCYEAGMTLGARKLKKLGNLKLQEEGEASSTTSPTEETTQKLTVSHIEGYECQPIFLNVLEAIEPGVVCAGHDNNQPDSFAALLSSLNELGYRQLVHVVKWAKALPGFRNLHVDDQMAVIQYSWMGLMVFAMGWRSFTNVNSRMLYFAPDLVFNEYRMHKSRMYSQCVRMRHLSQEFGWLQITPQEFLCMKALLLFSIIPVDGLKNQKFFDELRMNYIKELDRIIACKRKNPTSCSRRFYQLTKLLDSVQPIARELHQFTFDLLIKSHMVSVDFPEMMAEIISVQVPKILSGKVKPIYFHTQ

IC50 [2]: 9 nM
IC50 [3]: 28 nM
SMILES: N#Cc1cccc2c(O[C@H]3CC[C@H](NC(=O)c4cccc(F)c4)CC3)ccnc12 [Example 23, N-{trans-4-[(8-cyanoquinolin-4-yl)oxy]cyclohexyl}-3-fluorobenzamide]
IC50 [1]: 86 nM
